Measurements from patent US9889183B2, “PKC activators and anticoagulant in regimen for treating stroke” (BLANCHETTE ROCKEFELLER NEUROSCIENCES INSTITUTE, priority 2010, dated 2018).

Tests used:
PKCε = biological target: T1, PKCε (Homo sapiens, UniProt Q02156); assay: PKC assay with purified PKCε; type: biochemical; settings: for activation of purified PKCε (in words): FIG. 7, methyl esters
T1 construct: purchased Calbiochem
T1 sequence (Q02156 1-737): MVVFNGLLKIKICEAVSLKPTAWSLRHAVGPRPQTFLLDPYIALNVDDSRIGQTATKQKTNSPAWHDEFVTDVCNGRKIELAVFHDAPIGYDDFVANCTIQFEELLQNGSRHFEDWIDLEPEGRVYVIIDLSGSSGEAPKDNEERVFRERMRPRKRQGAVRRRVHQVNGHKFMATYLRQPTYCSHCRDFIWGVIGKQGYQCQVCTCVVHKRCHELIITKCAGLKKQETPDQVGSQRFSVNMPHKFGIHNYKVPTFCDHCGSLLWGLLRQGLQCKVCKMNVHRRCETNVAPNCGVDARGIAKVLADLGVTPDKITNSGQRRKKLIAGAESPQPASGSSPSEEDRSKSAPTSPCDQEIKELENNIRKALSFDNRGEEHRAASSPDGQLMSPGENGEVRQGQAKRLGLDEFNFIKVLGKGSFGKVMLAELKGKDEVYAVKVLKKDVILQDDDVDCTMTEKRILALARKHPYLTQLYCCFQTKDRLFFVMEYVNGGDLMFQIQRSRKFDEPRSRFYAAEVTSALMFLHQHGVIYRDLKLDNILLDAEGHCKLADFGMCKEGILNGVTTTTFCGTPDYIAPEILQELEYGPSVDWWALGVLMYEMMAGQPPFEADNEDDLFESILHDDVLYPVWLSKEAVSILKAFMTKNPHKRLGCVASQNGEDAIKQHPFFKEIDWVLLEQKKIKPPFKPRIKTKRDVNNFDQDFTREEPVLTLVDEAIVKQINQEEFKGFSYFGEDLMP
Protocol: PKC assay. Recombinant PKC (1 ng of PKCα or PKCε isoform) was mixed with BR-101 (DCP-LA) in the presence of 10 micromolar histones, 5 mM CaCl2, 1.2 μg/μl phosphatidyl-L-serine, 0.18 μg/μl 1,2-dioctanoyl-sn-glycerol (DAG), 10 mM MgCl2, 20 mM HEPES (pH 7.4), 0.8 mM EDTA, 4 mM EGTA, 4% glycerol, 8 μg/ml aprotinin, 8 μg/ml leupeptin, and 2 mM benzamidine. 0.5 micro Ci[^γ32P]ATP was added. The incubation mixture was incubated for 15 min at 37 degrees in a total volume of 10 microliters. The reaction was stopped by spotting the reaction mixtures on 1×2 cm strips of cellulose phosphate paper (Whatman P81) and immediately washing twice for 1 hr in 0.5% H3PO4. The cellulose phosphate strips were counted in a scintillation counter. In some experiments, phosphatidylserine, diacylglycerol, and/or calcium were removed.
DHA methyl ester was purchased from Cayman Chemical (Ann Arbor, Me.). PKC isozymes were from Calbiochem (San Diego, Calif.). Purified PKCε was purchased from Calbiochem.
(§1) Protein kinase C assay. Rat hippocampal cells were cultured and scraped in 0.2 ml homogenization buffer (20 mM Tris-HCl, pH 7.4, 50 mM NaF, 1 μg/ml leupeptin, and 0.1 mM PMSF) and homogenized by sonication a Marsonix microprobe sonicator (5 sec, 10 W). To measure PKC, 10 μl of cell homogenate or purified PKC isozyme (purchased from Calbiochem) was incubated for 15 min at 37° C. in the presence of 10 μM histones, 4.89 mM CaCl2, 1.2 μg/μl phosphatidyl-L-serine, 0.18 μg/μl 1,2-dioctanoyl-sn-glycerol, 10 mM MgCl2, 20 mM HEPES (pH 7.4), 0.8 mM EDTA, 4 mM EGTA, 4% glycerol, 8 μg/ml aprotinin, 8 μg/ml leupeptin, and 2 mM benzamidine. […][^γ32P]ATP was added and ^32P-phosphoprotein formation was measured by adsorption onto phosphocellulose as described previously. Nelson and Alkon, J. Neurochemistry (1995), vol. 65, pp. 2350-2357. For measurements of activation by BR-101 (DCP-LA) and similar compounds. PKC activity was measured in the absence of diacylglycerol and phosphatidylserine and PKC δ, ε, η, and μ were measured in the absence of added EGTA and CaCl2, as described by Kanno et al. (J. Lipid Res. 2006, vol. 47, pp. 1146-1150). Low concentrations of Ca^2+ are used because high Ca^2+ interacts with the PKC phosphatidylserine binding site and prevents activation. For measurements of bryostatin activation, 1,2-diacylglycerol was omitted unless otherwise stated.
To determine their PKC isozyme specificity, fatty acid derivatives were preincubated with purified PKC for five minutes and the PKC activity was measured radiometrically.

PKC = settings: cited from earlier work
[1] = system: squamous cell carcinoma and melanoma; settings: used topically; cited from earlier work
[2] = system: global cerebral ischemia/hypoxia in rats; assay: Global ischemia model, water maze (Examples 10-11); type: in vivo, rat
Protocol: Rats (male, Wistar, 200-225 g) were randomly divided into 6 groups (8 each) and housed for 1 week before experimentation. […] The global ischemia model used to induce vascular memory impairment was two-vessel occlusion combined with a short term systemic hypoxia. Ligation of the bilateral common carotid arteries was performed under anesthesia (pentobarbital, 60 mg/kg, i.p.). After a one-week recovery from the surgery, rats were exposed to 14-min hypoxia (5% oxygen in a glass jar). Control rats (sham operated and vehicle controls) were subjected to the same incision to isolate both common carotid arteries and to 14-min air (in the glass jar). Body temperature was kept at 37-37.5° C. using a heating light source during the surgical procedure and until the animals were fully recovered.

[3] = system: PKC in H19-7/IGF-IR cells; assay: PKC activity over time in rat H19-7/IGF-IR hippocampal cells; type: cell-based; settings: treated cells, 8 hours; data not shown
Protocol: Cell culture. Rat hippocampal H19-7/IGF-IR cells (ATCC, Manassas, Va.) were plated onto poly-L-lysine coated plates and grown at 35° C. in DMEM/10% FCS for several days until about 50% coverage was obtained. The cells were then induced to differentiate into a neuronal phenotype by replacing the medium with 5 ml N2 medium containing 10 ng/ml basic fibroblast growth factor at 39° C. and grown in T-75 flasks at 37° C. Human SH-SY5Y neuroblastoma cells (ATCC) were cultured in 45% F12K/45% MEM/10% FCS. Mouse N2A neuroblastoma cells were cultured in DMEM/10% FCS without glutamine. Rat hippocampal neurons from 18-day-old embryonic Sprague Dawley rat brains were plated on 12- or 96-well plates coated with poly-D-lysine (Sigma-Aldrich, St. Louis, Mo.) in B-27 neurobasal medium containing 0.5 mM glutamine and 25 μM glutamate (Invitrogen, Carlsbad, Calif.) and cultured for three days in the medium without glutamate. The neuronal cells were grown under 5% CO2 in an incubator maintained at 37° C. for 14 days.
as §1
PKC activators that bind to the diacylglycerol binding site, including bryostatin, gnidimacrin, and phorbol esters, produce a transient activation of PKC activity, followed by a prolonged downregulation. Nelson et al., Trends in Biochem. Sci. (2009), vol. 34, pp. 136-145. This was confirmed in cultured rat hippocampal cells. Incubation of rat H19-7/IGF-IR cells with (0.04 nM and 0.2 nM) bryostatin produced a 2-fold activation that lasted 30 min, followed by a 20% downregulation that returned to baseline by 24 hours (data not shown). […] This sustained activation was only observed in primary neurons.

Aβ in COS cells = settings: 1 μM, cultured COS cells, 8 hours; cited from earlier work
[4] = non-ischemic rats, same regimens

## CCCCCC1OC1C/C=C\CCCCCCCC(=O)OC (stereo in doubt) [BR-117, vernolic acid methyl ester]
PKCε; FIG. 8
  effect on PKC: little or no effect

## CCCCCCCC(=O)O[C@H]1/C(=C/C(=O)OC)C[C@H]2C[C@H](CO)OC(=O)C[C@H](O)C[C@@H]3CCC[C@H](C[C@@H]4CCO[C@H](/C=C/C(C)(C)[C@]1(O)O2)O4)O3 [Analog 1]
PKC
  affinity for PKC (in words): highest affinity

## CCC1CC1CC1CC1CC1CC1CCCCCCCCO (stereo not shown) [BR-104, linolenic alcohol tricyclopropane]
PKCε; FIG. 8
  effect on PKC: little or no effect

## CCCCCC1CC1CC1CC1CCCCCCCCO (stereo not shown) [BR-105, linoleic alcohol dicyclopropane]
PKCε; FIG. 8
  effect on PKC: little or no effect

## CCCCC[C@H]1O[C@H]1CC1CC1CCCCCCCC(=O)OC (stereo partly shown) [BR-109, vernolic acid methyl ester cyclopropane]
PKCε; FIG. 8
  concentrations at which PKCε is inhibited: above 1 μM

## CCC1CC1CC1CC1CC1CC1CC1CC1CC1CC1CCCC(=O)OC (stereo not shown) [BR-114]
PKCε
  concentration needed to activate PKC relative to BR-101 (DCP-LA): approximately 100 times lower
  activation of purified PKCε (in words): activated purified PKCε to a similar extent

## CCCCCC1CC1CC1CC1CC1CC1CC1CC1CCCC(=O)OC (stereo not shown) [BR-115, methyl 4-(2-((2-((2-((-pentylcyclopropyl)methyl)cyclopropyl)methyl)cyclopropyl)methyl)cyclopropyl)butanoate methyl ester]
PKCε
  concentration needed to activate PKC relative to BR-101 (DCP-LA): approximately 100 times lower
  activation of purified PKCε (in words): activated purified PKCε to a similar extent

## C/C=C(/C)C(=O)O[C@H]1C(C)=C[C@]23C(=O)[C@@H](C=C(CO)[C@@H](O)[C@]12O)[C@H]1[C@@H](C[C@H]3C)C1(C)C [Ingenol-3-angelate]
[1]
  antitumor activity: exhibits antitumor activity

## Cc1ccc(OCC(=O)O)c(OCC(=O)O)c1 [MCDA, 4-Methylcatechol-diacetic acid]
[2]; bryostatin-1 20 μg/m^2 i.v. 2 doses/week, 10 doses, MCDA 1.0 mg/kg i.p. daily 5 weeks, start 24 hours after hypoxia
  water maze spatial learning, ischemic treated vs ischemic rats: improved the learning
[2]; [4]
  target quadrant ratio in probe test, drug-only vs control rats: no differences
  water maze spatial learning, drug-only vs control rats: no differences
[2]; same regimens
  target quadrant ratio in probe test, ischemic treated vs control rats: no differences
  target quadrant ratio in probe test, ischemic treated vs ischemic rats: group differences
  water maze spatial learning, ischemic treated vs control rats: remained significant

## CCCCCCCCCCCCCC(=O)O[C@@H]1[C@@H](C)[C@@]2(O)[C@@H](C=C(CO)C[C@]3(O)C(=O)C(C)=C[C@@H]23)[C@@H]2C(C)(C)[C@]12OC(C)=O [PMA, phorbol 12-myristate 13-acetate]
[3]
  PKC activity at 8 hours (downregulation): strongly downregulated

## CCCC(=O)O[C@@H]1[C@@H](C)[C@@]2(O)[C@@H](C=C(CO)C[C@]3(O)C(=O)C(C)=C[C@@H]23)[C@@H]2C(C)(C)[C@]12OC(=O)CCC [PdBu]
Aβ in COS cells
  effect on Aβ: increase in Aβ

## epoxystearic acid [BR-116]
PKCε; FIG. 8
  effect on PKC: little or no effect
